# Assay results taken from US9155776B2, “Low frequency glatiramer acetate therapy” (Yeda Research & Development Co., Ltd., priority 2009, dated 2015).
# Like-named read-outs stand apart in the source and are kept apart here.
# B1: IFNβ-1b: immunomodulator (IFNβ 1b) whose efficacy in MS was shown in controlled clinical trials (protein, UniProt P01574 22-187, looked up, variant C17S)
# Interferon beta: MSYNLLGFLQRSSNFQSQKLLWQLNGRLEYCLKDRMNFDIPEEIKQLQQFQKEDAALTIYEMLQNIFAIFRQDSSSTGWNETIVENLLANVYHQINHLKTVLEEKLEKEDFTRGKLMSSLHLKRYYGRILHYLKAKEYSHCAWTIVRVEILRNFYFINRLTGYLRN
# Legend:
# [1] = system: subjects with Relapsing-Remitting Multiple Sclerosis (RRMS)
# Method: The study is designed to select three days a week for injection. Three injections are administered for every seven days and there must be at least one day between each injection.
# Eligible subjects are randomized in a 2:1 ratio (40 mg:placebo) and assigned to one of the following three treatment arms: • 1. […] Matching placebo three times weekly (450 subjects)
# During the PC phase, subjects are evaluated at study sites for a total of 7 scheduled visits at months: −1 (screening), 0 (baseline), 1, 3, 6, 9, and 12 (End of PC phase).
# During the study, the following assessments are performed (regardless of the treatment assignment) at the specified time points: • Vital signs are measured at each study visit. • A physical examination is performed at months −1 (screening), 0 (baseline) 6, 12 (end of PC phase) and every 6 months thereafter. In addition, a physical examination will be performed at the termination visit of the OL phase. • The following safety clinical laboratory tests are performed: • Complete blood count (CBC) with differential—at all scheduled visits in the PC phase, and every 12 months thereafter. In addition this test will be performed at the termination visit of the OL phase. • Serum chemistry (including electrolytes, creatinine, urea and liver enzymes) and urinalysis—at all scheduled visits in the PC phase, and every 12 months thereafter. In addition this test will be performed at the termination visit of the OL phase. • Serum β-hCG in women of child-bearing potential is performed at months −1 (screening), 0 (baseline), 12 (end of PC phase), and every 12 months thereafter. In addition this test will be performed at the termination visit of the OL phase. • ECG is performed at months −1 (screening), 0 (baseline), 12 (end of PC phase), and every 12 months thereafter. In addition an ECG will be performed at the termination visit of the OL phase. • Chest X-ray is performed at month −1 (screening) if not performed within 6 months prior to screening visit. • Adverse Events (AEs) are monitored throughout the study. • Concomitant Medications are monitored throughout the study. • Neurological evaluations, including Neurostatus [Functional Systems (FS), Expanded Disability Status Scale (EDSS), Ambulation Index (AI)] are performed at months −1 (screening), 0 (baseline), 3, 6, 9, 12 (end of PC phase) and every 6 months thereafter. In addition, a neurological examination are performed at the termination visit of the OL phase. • The general health status is assessed by the EuroQoL (EQ5D) questionnaire at months 0 (baseline) and 12 (end of PC phase). • Additional quality of life parameters are assessed by the WPAI (Work Productivity and Activities Impairment) Questionnaire at month 0 (baseline), 3, 6, 9 and 12 (end of PC phase). • All subjects undergo MRI scans at months 0 (13-7 days prior to baseline visit), 6 and 12 (end of PC phase). Following the results of the PC phase, the Sponsor may decide to perform an MRI scan at the termination visit of the OL phase. • Relapses are confirmed/monitored throughout the study.
# Route and Dosage Form: • Glatiramer Acetate 40 mg in 1 ml for subcutaneous injection in a pre-filled syringe (PFS), administered three times a week. • Matching placebo injection (mannitol in 1 ml WFI) for subcutaneous injection in a pre-filled syringe (PFS). Outcome Measures: Primary Outcome Measure: • The total number of confirmed relapses during the 12 month PC phase.
# [2] = system: patients who have experienced a clinically isolated syndrome (CIS); conditions: three s.c. injections over a period of seven days with at least one day between every injection
# [3] = system: MS patients; conditions: 20 mg/day subcutaneous (s.c.) dose; cited from earlier work
# [4] = system: patients who have experienced a clinically isolated syndrome (CIS); conditions: 20 mg daily s.c. injection; PCT/US2008/013146; cited from earlier work
# [5] = system: MS; conditions: controlled clinical trials; cited from earlier work
# [6] = 40 mg s.c. three times weekly compared with 20 mg s.c. GA daily administration
# [7] = 40 mg s.c. three times weekly vs placebo
molecule,measurement,setting,value
"L-glutamic acid polymer with L-alanine, L-lysine, L-tyrosine, acetate (salt) [GA]",reduction of subject population annualized relapse rate,"[1]; 40 mg s.c. three times weekly compared to the placebo group, RRMS subjects",≥ 30%
same,increasing the proportion of relapse-free subjects during the placebo-controlled phase,[1]; [6],at least as effective as 20 mg s.c. GA daily administration
same,increasing the time to the first confirmed relapse during the placebo-controlled phase,[1]; [6],at least as effective as 20 mg s.c. GA daily administration
same,reducing the change from baseline to month 12 (end of placebo-controlled phase) in EDSS Score,[1]; [6],at least as effective as 20 mg s.c. GA daily administration
same,reducing the cumulative number of enhancing lesions on T1-weighted images taken at months 6 and 12,[1]; [6],at least as effective as 20 mg s.c. GA daily administration
same,reducing the level of disability as measured by EDSS Score,[1]; [6],at least as effective as 20 mg s.c. GA daily administration
same,reducing the level of disability as measured by EuroQoL (EQ5D) questionnaire,[1]; [6],at least as effective as 20 mg s.c. GA daily administration
same,reducing the level of disability as measured by the work productivity and activities impairment-General Health (WPAI-GH) questionnaire,[1]; [6],at least as effective as 20 mg s.c. GA daily administration
same,reducing the number of new T2 lesions at month 12,[1]; [6],at least as effective as 20 mg s.c. GA daily administration
same,reducing the number of new hypointense lesions on enhanced T1 scans at month 12 as compared to the baseline scan,[1]; [6],at least as effective as 20 mg s.c. GA daily administration
same,reducing the progression of MRI-monitored disease activity in the patient,[1]; [6],at least as effective as 20 mg s.c. GA daily administration
same,reducing the subject population annualized relapse rate,[1]; [6],at least as effective as 20 mg s.c. GA daily administration
same,reducing the total number of confirmed relapses during the placebo-controlled phase requiring hospitalization and/or IV steroids,[1]; [6],at least as effective as 20 mg s.c. GA daily administration
same,reducing proportion (%) of subjects with confirmed EDSS progression during the placebo-controlled phase,"[1]; 40 mg s.c. three times weekly compared with 20 mg s.c. GA daily administration, progression of at least 1 EDSS point sustained for at least 3 months",at least as effective as 20 mg s.c. GA daily administration
same,change from baseline to month (end of placebo-controlled phase) in EDSS Score,[1]; [7],significantly reduces
same,cumulative number of enhancing lesions on T1-weighted images taken at months 6 and 12,[1]; [7],significantly reduces
same,level of disability as measured by EDSS Score,[1]; [7],significantly reduces
same,level of disability as measured by EuroQoL (EQ5D) questionnaire,[1]; [7],significantly reduces
same,level of disability as measured by the work productivity and activities impairment-General Health (WPAI-GH) questionnaire,[1]; [7],significantly reduces
same,number of new T2 lesions at month 12,[1]; [7],significantly reduces
same,number of new hypointense lesions on enhanced T1 scans at month 12 as compared to the baseline scan,[1]; [7],significantly reduces
same,progression of MRI-monitored disease activity in the patient,[1]; [7],significantly reduces
same,proportion of relapse-free subjects during the placebo-controlled phase,[1]; [7],significantly increases
same,time to the first confirmed relapse during the placebo-controlled phase,[1]; [7],significantly increases
same,total number of confirmed relapses during the placebo-controlled phase requiring hospitalization and/or IV steroids,[1]; [7],significantly reduces
same,proportion (%) of subjects with confirmed EDSS progression during the placebo-controlled phase,"[1]; 40 mg s.c. three times weekly vs placebo, progression of at least 1 EDSS point sustained for at least 3 months",significantly reduces
same,efficacy in treatment of patients who have experienced a clinically isolated syndrome (CIS),[2],expected to work
same,total number of enhancing lesions in MS patients as measured by MRI,[3],has been shown to reduce
same,efficacy in treatment of patients who have experienced a clinically isolated syndrome (CIS),[4],has been shown to work
B1,efficacy in the treatment of MS,[5],demonstrated the efficacy
